According to patent publication US20140148498A1, “METHODS AND COMPOSITIONS FOR THE TREATMENT OF MARFAN SYNDROME AND ASSOCIATED DISORDERS” (THE JOHNS HOPKINS UNIVERSITY, priority 2011, published 2014):
Entries after “also recorded” stand apart in the source; their conditions may differ.

Assays:
[1] = system: Fbn1^C1039G/+ mice; test: Aortic root and ascending aortic growth by echocardiography (Examples 6-8); assay type: in vivo
Source text: (§1) All mice were cared for under strict compliance with the Animal Care and Use Committee of the Johns Hopkins University School of Medicine. The Smad4 haploinsufficient mice were a generous gift from Dr. Chuxia Deng (NIH/NIDDK, Bethesda). The Fbn1^C1039G/+ line was maintained on a C57BL/6 background, allowing for valid comparisons. In order to further accommodate the potential for temporal- or background-specific variation in genetic or pharmacological manipulation experiments, all comparisons were made between contemporary littermates. Mice were checked daily for death and all mice found dead were immediately necropsied to assess for evidence of aortic dissection. Mice were killed with an inhalation overdose of halothane (Sigma-Aldrich, St. Louis). Mice underwent immediate laparotomy, descending abdominal aortic transection, and PBS (pH 7.4) infusion through the left ventricle to flush out the blood. For Western blot analysis, the proximal ascending aorta (root to right brachiocephalic trunk) was removed, flash frozen in liquid nitrogen and stored at −80° C. Following PBS infusion, mice analyzed for aortic histology had latex injected under low pressure into the left ventricular apex until it was visible in the descending abdominal aorta. The mice were then fixed for 24 hours in 10% buffered formalin, after which the heart and aorta were removed and stored in 70% ethanol.
Mouse monoclonal TGFβNAb (1d11; R&D Systems, Minneapolis) was reconstituted in PBS and administered via intraperitoneal injection 3 times a week at a dose of 5 mg/kg. Treatment was initiated at 1 month of age and continued for 2 months. IgG (Zymed Laboratories Inc, San Francisco) was reconstituted in PBS, and administered at a dose of 10 mg/kg as a control. SP600125 (Sigma-Aldrich, St. Louis) was reconstituted in 10% DMSO dissolved in PBS, and administered twice daily by intraperitoneal injection, at a dose of 30 mg/kg. Treatment was initiated at 1 month of age and continued for 2 months. 10% DMSO dissolved in PBS was administered as a control. RDEA119 was reconstituted in 10% 2-hydroxypropyl-beta-cyclodextrin (Sigma-Aldrich, St. Louis) dissolved in PBS, and administered twice daily by oral gavage at a dose of 25 mg/kg. Treatment was initiated at 2 months of age and continued for 2 months. 10% 2-hydroxypropyl-beta-cyclodextrin dissolved in PBS was administered as a control. Fasudil was dissolved in drinking water, and administered at a dose of 1 mg/kg body weight per day. Treatment was initiated at 2 months of age and continued for 4 months. Drinking water was administered as a control.
Nair hair removal cream was used on all mice the day prior to echocardiography. All echocardiograms were performed on awake, unsedated mice using the Visualsonics Vevo 660 V1.3.6 imaging system and a 30 MHz transducer. The aorta was imaged using a parasternal long axis view. Three separate measurements of the maximal internal systolic dimension at the sinus of Valsalva and proximal ascending aorta were made, and a mean was calculated. All imaging and measurements were performed by a cardiologist who was blinded to genotype and treatment arm. In the TGFβNAb and SP600125 trials, mice were imaged at 1 month (baseline) and 3 months of age, after which they were killed. In the RDEA119 trial, mice were imaged at 2 months (baseline) and 4 months of age, after which they were killed. In the fasudil trial, mice were imaged at 2 months (baseline) and 6 months of age, after which they were killed. Smad4 haploinsufficient mice were imaged at 1 month, and then every 2 months thereafter, until death or sacrifice.

[2] = system: WT mice; test: Aortic root growth by echocardiography, WT mice (Examples 6-8); assay type: in vivo
Source text: as §1
(§2) Mouse monoclonal TGFβNAb (1d11; R&D Systems, Minneapolis) was reconstituted in PBS and administered via intraperitoneal injection 3 times a week at a dose of 5 mg/kg. Treatment was initiated at 1 month of age and continued for 2 months. IgG (Zymed Laboratories Inc, San Francisco) was reconstituted in PBS, and administered at a dose of 10 mg/kg as a control. […]
(§3) Nair hair removal cream was used on all mice the day prior to echocardiography. […] Three separate measurements of the maximal internal systolic dimension at the sinus of Valsalva and proximal ascending aorta were made, and a mean was calculated. […]

[3] = system: ERK1/2; test: Western blot of proximal ascending aorta: ERK1/2 activation (Examples 6-8); assay type: in vivo, mice
Source text: as §1, §2
(§4) Protein was extracted using the reagents and protocol from a Total Protein Extraction Kit, in conjunction with a Protein Phosphatase Inhibitor Cocktail (Millipore, MA). […] Equal protein loading of samples was determined by a protein assay (BioRad, CA) and confirmed by probing with antibodies against β-Actin or GAPDH (Sigma, Mo.). […]

[4] = system: Smad2; test: Western blot of proximal ascending aorta: Smad2 activation (Examples 6-8); assay type: in vivo; details: Fbn1^C1039G/+ mice, RDEA119 trial, FIG. 16D
Source text: as §1, with “Mice underwent immediate laparotomy, descending abdominal aortic transection, and PBS (pH 7.4) infusion through the left ventricle to flush out the blood. For Western blot analysis, the proximal ascending aorta (root to right brachiocephalic trunk) was removed, flash frozen in liquid nitrogen and stored at −80° C.” left out, “The mice were then fixed for 24 hours in 10% buffered formalin, after which the heart and aorta were removed and stored in 70% ethanol.” left out
as §4

[5] = system: JNK1; test: Western blot of proximal ascending aorta: JNK1 activation (Examples 6-8); assay type: in vivo, mice
Source text: as §1, with “Mice underwent immediate laparotomy, descending abdominal aortic transection, and PBS (pH 7.4) infusion through the left ventricle to flush out the blood. For Western blot analysis, the proximal ascending aorta (root to right brachiocephalic trunk) was removed, flash frozen in liquid nitrogen and stored at −80° C.” left out, “The mice were then fixed for 24 hours in 10% buffered formalin, after which the heart and aorta were removed and stored in 70% ethanol.” left out
as §4

[6] = system: p38; test: Western blot of proximal ascending aorta: p38 activation (Examples 6-8); assay type: in vivo; details: Fbn1^C1039G/+ mice, RDEA119 trial, FIG. 16D
Source text: as §1, with “Mice underwent immediate laparotomy, descending abdominal aortic transection, and PBS (pH 7.4) infusion through the left ventricle to flush out the blood. For Western blot analysis, the proximal ascending aorta (root to right brachiocephalic trunk) was removed, flash frozen in liquid nitrogen and stored at −80° C.” left out, “The mice were then fixed for 24 hours in 10% buffered formalin, after which the heart and aorta were removed and stored in 70% ethanol.” left out
as §4

[7] = system: ERK5; test: Western blot of proximal ascending aorta: ERK5 activation (Examples 6-8); assay type: in vivo; details: Fbn1^C1039G/+ mice, RDEA119 trial, FIG. 16D
Source text: as §1, with “Mice underwent immediate laparotomy, descending abdominal aortic transection, and PBS (pH 7.4) infusion through the left ventricle to flush out the blood. For Western blot analysis, the proximal ascending aorta (root to right brachiocephalic trunk) was removed, flash frozen in liquid nitrogen and stored at −80° C.” left out, “The mice were then fixed for 24 hours in 10% buffered formalin, after which the heart and aorta were removed and stored in 70% ethanol.” left out
as §4

[8] = Body weight at the end of the two month RDEA119 trial; assay type: in vivo; details: WT or Fbn1^C1039G/+ mice, FIG. 25
Experimental: (§5) Mouse monoclonal TGFβNAb (1d11; R&D Systems, Minneapolis) was reconstituted in PBS and administered via intraperitoneal injection 3 times a week at a dose of 5 mg/kg. Treatment was initiated at 1 month of age and continued for 2 months. IgG (Zymed Laboratories Inc, San Francisco) was reconstituted in PBS, and administered at a dose of 10 mg/kg as a control. SP600125 (Sigma-Aldrich, St. Louis) was reconstituted in 10% DMSO dissolved in PBS, and administered twice daily by intraperitoneal injection, at a dose of 30 mg/kg. Treatment was initiated at 1 month of age and continued for 2 months. 10% DMSO dissolved in PBS was administered as a control. RDEA119 was reconstituted in 10% 2-hydroxypropyl-beta-cyclodextrin (Sigma-Aldrich, St. Louis) dissolved in PBS, and administered twice daily by oral gavage at a dose of 25 mg/kg. Treatment was initiated at 2 months of age and continued for 2 months. 10% 2-hydroxypropyl-beta-cyclodextrin dissolved in PBS was administered as a control. Fasudil was dissolved in drinking water, and administered at a dose of 1 mg/kg body weight per day. Treatment was initiated at 2 months of age and continued for 4 months. Drinking water was administered as a control. […]

[9] = system: S4^+/−:Fbn1^C1039G/+ mice; test: Aortic root and ascending aortic growth by echocardiography, Smad4 haploinsufficient MFS mice; assay type: in vivo
Source text: as §1
as §5, with “months.” for “months. Drinking water was administered as a control.”
as §3

[10] = system: S4^+/−:Fbn1^C1039G/+ mice; test: Survival (premature death due to aortic dissection); assay type: in vivo
Source text: as §1, with “ethanol. […]” for “ethanol.”

[11] = system: abdominal aortic aneurysm induced by the periaortic application of calcium chloride; details: prior work (Yoshimura et al. 2005), in association with reduced JNK1 activation; cited from earlier work
[12] = 25 mg/kg twice daily oral gavage, 2 to 4 months of age, FIG. 16C
[13] = RDEA119 trial, 2 months of treatment
[14] = Fbn1^C1039G/+ mice, RDEA119 trial, FIG. 16D
[15] = 30 mg/kg twice daily i.p., 1 to 3 months of age, FIG. 23A
[16] = WT and Fbn1^C1039G/+ mice after two weeks of therapy, FIG. 24

In the case of `COc1cc(F)c(F)c(Nc2ccc(I)cc2F)c1NS(=O)(=O)C1(C[C@H](O)CO)CC1` [RDEA119], the “Final absolute aortic root diameter” value [1, 12] is reported as 1.94+/−0.07 mm, the Aortic root growth [1, 13] is reported as “selectively reduced growth; also recorded: significantly less than that of placebo-treated” and the “Final absolute aortic root diameter” value [2, 12] is reported as 1.64+/−0.09 mm. For the same compound, the Aortic root growth [2, 13] was “no significant effect”, the ERK1/2 activation [3, 14] was “selective reduction in pERK1/2 signaling; also recorded: significant reduction in ERK1/2 activation” and the Smad2 activation [4] was “unchanged”. For the same compound, the JNK1 activation [5, 14] was “unchanged”, the p38 activation [6] was “unchanged” and the ERK5 activation [7] was “unchanged”. The “Weight (somatic growth) at the end of the two month trial” value [8] was “does not significantly affect somatic growth; also recorded: did not significantly affect the weight”.

For `O=C1c2ccccc2-c2n[nH]c3cccc1c23` [SP600125], the “Final absolute aortic root diameter” value [1, 15] was 1.97+/−0.16 mm, the “Final absolute ascending aortic diameter” value [1, 15] was 1.38+/−0.06 mm and the Aortic root growth ([1]; SP600125 trial, versus placebo) was “decreased aortic root growth; also recorded: ameliorated their aortic root growth”. For the same compound, the “Final absolute aortic root diameter” value [9, 15] was 2.09+/−0.16 mm, the “Final absolute ascending aortic diameter” value [9, 15] was 1.47+/−0.14 mm and the Aortic root growth ([9]; SP600125 trial, versus placebo) was “decreased aortic root growth; also recorded: significant reduction”. For the same compound, the Ascending aortic growth ([9]; SP600125 trial, versus placebo) was “reduced ascending aortic growth; also recorded: significant reduction”, the “Mice still alive at 3 months of age” value ([10]; 50% of placebo-treated had died) was “all” and the “Premature death due to aortic dissection” value ([10]; FIG. 23B) was “prevention of premature death; also recorded: prevented the premature death”. For the same compound, the ERK1/2 activation [3, 16] was “no change in ERK1/2 activation; also recorded: remained unaffected”, the JNK1 activation [5, 16] was “significant reduction in JNK1 activation; also recorded: reduction of JNK1 activation to levels below baseline” and the Abdominal aortic aneurysm [11] was “ameliorate abdominal aortic aneurysm”.
